Experimental data from patent US8470770B2, “Antimicrobial agents” (priority 2007, dated 2013).
Values after ≈ are worked out from the molar mass of the structure shown.

What was measured:
[1] = tested on: methicillin resistant Staphylococcus aureus (CI 15903); experiment: microbe, parasite or virus in culture; details: methicillin resistant (CI 15903)
Description: (§1) Minimal inhibitory concentrations (MICs) were determined by microdilution susceptibility testing in 96-well plates using inocula of 10^6 bacteria per ml.
(§2) Cell populations were evaluated by optical density measurements at 600 nm and were calibrated against a set of standards. Hundred (100) μl of a bacterial suspension were added to 100 μl of culture medium (control) or to 100 μl of culture medium containing various polymer concentrations in 2-fold serial dilutions.
(§3) Alternatively, MICs were determined using the microbroth dilution assay recommended by the Clinical and Laboratory Standards Institute (CLSI) using two-fold serial dilutions in cation-adjusted Mueller-Hinton broth (CAMHB).
“MIC MR S.a.” represents the minimal inhibitory concentration of each tested polymer in μM for methicillin-resistant S. aureus, measured as described hereinabove for the antibacterial activity assay of antibiotic-resistant bacteria (column 8 in Table 3);

[2] = tested on: Pseudomonas aeruginosa (ATCC 9027); experiment: microbe, parasite or virus in culture; details: ATCC 9027
Description: as §1, §2, §3
“MIC P.a.” represents the minimal inhibitory concentration of each tested polymer in μM for P. aeruginosa, measured as described hereinabove for the antibacterial activity assay (column 7 in Table 3);

[3] = tested on: Bacillus cereus (ATCC 11778)
Description: as §1, §2, §3
“MIC B.c.” represents the minimal inhibitory concentration of each tested polymer in μM for Bacillus cereus, measured as described hereinabove for the antibacterial activity assay (column 9 in Table 3); and […]

[4] = tested on: Escherichia coli (ATCC 35218); experiment: microbe, parasite or virus in culture; details: ATCC 35218
Description: as §1, §2, §3
“MIC E.c.” represents the minimal inhibitory concentration of each tested polymer in μM for E. coli, measured as described hereinabove in the antibacterial activity assay (column 5 in Table 3);

[5] = Hydrophobicity estimation by HPLC reversed-phase C18 elution; type: physicochemical; details: HPLC-RP C18, linear acetonitrile gradient 1% per minute
Description: HPLC chromatograms were performed on C18 columns (Vydak, 250 mm×4.6 or 10 mm) using a linear gradient of acetonitrile in water (1% per minute), both solvents contained 0.1% trifluoroacetic acid. The purified polymers were subjected to mass spectrometry (ZQ Waters) to confirm their composition and stored as a lyophilized powder at −20° C. Prior to being tested, fresh solutions were prepared in water, mixed by vortex, solubilized by ultrasound, centrifuged and then diluted in the appropriate medium.
In order to estimate the hydrophobicity of each polymer, the polymer was eluted with a linear gradient of acetonitrile (1% per minute) on an HPLC reversed-phase C18 column, and the percent of acetonitrile at which the polymer was eluted was used for hydrophobicity estimation (see, “ACN (%)” in Table 3 below).
“ACN (%)” represents the percent of acetonitrile in the HPLC-RP gradient mobile phase at which the polymer was eluted and which corresponds to the estimated hydrophobicity of the polymer (column 4 in Table 3);

Row | SMILES | MIC MR S.a. [1] [µM] | MIC P.a. [2] [µM] | MIC B.c [3] [µM] | MIC E.c. [4] [µM] | ACN (%) (percent of acetonitrile at which the polymer was eluted; estimated hydrophobicity) [5]
1 | NCCCCC1NC(=O)CCCCCCCCCCCNC(=O)C(CCCCN)NC(=O)CCCCCCCCCCCNC(=O)C(CCCCN)NC(=O)CCCCCCCCCCCNC(=O)C(CCCCN)NC(=O)CCCCCCCCCCCNC1=O (stereo not shown) [Polymer 5, Cyclic-(NC12K)4] | >50 | >50 | >50 | >50 | 47.4
2 | NCCCCC1NC(=O)CCCCCCCCCCCNC(=O)C(CCCCN)NC(=O)CCCCCCCCCCCNC(=O)C(CCCCN)NC(=O)CCCCCCCCCCCNC1=O (stereo not shown) [Polymer 4, Cyclic-(NC12K)3] | 12.5 (≈ 12.2 µg/mL) | >50 | >50 | >50 | 47.0
